{"source": "ChEMBL document CHEMBL4118146", "about": "“Design, synthesis and evaluation of substituted piperidine based KCNQ openers as novel antiepileptic agents” (Bioorg Med Chem Lett, 2018)", "key": {"[1]": {"target": "T1, Potassium voltage-gated channel subfamily KQT member 2 (Homo sapiens, UniProt O43526)", "T1 sequence (O43526 whole entry)": "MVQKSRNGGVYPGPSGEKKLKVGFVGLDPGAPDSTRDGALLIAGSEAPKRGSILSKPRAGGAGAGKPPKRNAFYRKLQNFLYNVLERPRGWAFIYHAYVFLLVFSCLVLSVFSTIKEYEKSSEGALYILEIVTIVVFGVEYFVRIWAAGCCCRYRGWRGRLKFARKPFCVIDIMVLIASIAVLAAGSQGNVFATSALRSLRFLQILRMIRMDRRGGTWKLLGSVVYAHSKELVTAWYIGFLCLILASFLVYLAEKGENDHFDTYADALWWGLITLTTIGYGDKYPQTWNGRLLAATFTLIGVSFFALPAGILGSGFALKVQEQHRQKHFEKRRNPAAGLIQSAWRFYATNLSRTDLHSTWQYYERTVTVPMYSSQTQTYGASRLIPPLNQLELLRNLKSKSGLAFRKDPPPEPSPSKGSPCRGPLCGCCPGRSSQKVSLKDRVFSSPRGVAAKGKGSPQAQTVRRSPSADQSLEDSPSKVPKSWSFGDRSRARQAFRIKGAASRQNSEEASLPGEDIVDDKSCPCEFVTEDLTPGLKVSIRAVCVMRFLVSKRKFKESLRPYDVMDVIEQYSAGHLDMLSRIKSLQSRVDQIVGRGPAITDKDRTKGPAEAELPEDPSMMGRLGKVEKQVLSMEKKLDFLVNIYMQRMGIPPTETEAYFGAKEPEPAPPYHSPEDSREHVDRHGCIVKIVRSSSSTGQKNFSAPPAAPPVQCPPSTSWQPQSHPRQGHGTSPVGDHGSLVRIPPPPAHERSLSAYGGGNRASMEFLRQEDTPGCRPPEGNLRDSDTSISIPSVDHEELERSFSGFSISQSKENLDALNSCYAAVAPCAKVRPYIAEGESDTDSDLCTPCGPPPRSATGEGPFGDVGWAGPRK", "assay": "Activation of KCNQ2 (unknown origin) expressed in CHO cells at 10 uM incubated for 20 mins in dark measured every 2 secs for 10 secs by fluorescence-based thallium influx assay relative to control", "format": "cell-based"}, "[2]": {"target": "T1, Potassium voltage-gated channel subfamily KQT member 2", "assay": "Activation of KCNQ2 (unknown origin) expressed in CHO cells assessed as half-maximum activation voltage left shift at 10 uM by electrophysiological patch-clamp test", "format": "cell-based"}, "[3]": {"target": "T1, Potassium voltage-gated channel subfamily KQT member 2", "assay": "Activation of KCNQ2 (unknown origin) expressed in CHO cells at 10 uM after 10 mins by atomic absorption spectrophotometry-based Rb+ flow assay", "format": "cell-based"}, "[4]": {"target": "T1, Potassium voltage-gated channel subfamily KQT member 2", "assay": "Activation of KCNQ2 (unknown origin) expressed in CHO cells at 10 uM incubated for 20 mins in dark measured every 2 secs for 10 secs by fluorescence-based thallium influx assay relative to retigabine", "format": "cell-based"}, "[5]": {"target": "T1, Potassium voltage-gated channel subfamily KQT member 2", "assay": "Activation of KCNQ2 (unknown origin) expressed in CHO cells assessed as conductivity (I/I0) at 10 uM by electrophysiological patch-clamp test", "format": "cell-based"}, "[6]": {"assay": "Tmax in Sprague-Dawley rat at 1 mg/kg, iv measured over 24 hrs by LC/MS/MS method", "format": "ADME, organism-based", "settings": "in vivo"}, "[7]": {"assay": "Apparent volume of distribution in Sprague-Dawley rat at 1 mg/kg, iv measured over 24 hrs by LC/MS/MS method", "format": "ADME, organism-based", "settings": "in vivo, read-out: Vd(app)"}, "[8]": {"assay": "AUClast in Sprague-Dawley rat at 1 mg/kg, iv measured over 24 hrs by LC/MS/MS method", "format": "ADME, organism-based", "parameters": "dose 1 mg/kg, time 0 - last, route intravenous", "settings": "in vivo"}, "[9]": {"assay": "Clearance in Sprague-Dawley rat at 1 mg/kg, iv measured over 24 hrs by LC/MS/MS method", "format": "ADME, organism-based", "settings": "in vivo"}, "[10]": {"assay": "Half life in Sprague-Dawley rat at 1 mg/kg, iv measured over 24 hrs by LC/MS/MS method", "format": "ADME, organism-based", "settings": "in vivo"}, "[11]": {"assay": "MRTlast in Sprague-Dawley rat at 1 mg/kg, iv measured over 24 hrs by LC/MS/MS method", "format": "ADME, organism-based", "settings": "in vivo"}, "[12]": {"assay": "Cmax in Sprague-Dawley rat at 1 mg/kg, iv measured over 24 hrs by LC/MS/MS method", "format": "ADME, organism-based", "parameters": "dose 1 mg/kg, route intravenous", "settings": "in vivo"}}, "data": [{"smiles": "Cc1cc(N2CCN(c3cccc(C(F)(F)F)c3)CC2)cc(C)c1NC(=O)CC(C)(C)C", "values": [{"measurement": "Activity", "setting": "[1]", "value": 52.1, "unit": "%"}]}, {"smiles": "Cc1cc(N2CCC(c3ccccc3F)CC2)cc(C)c1NC(=O)CC(C)(C)C", "values": [{"measurement": "Activity", "setting": "[1]", "value": 44, "unit": "%"}]}, {"smiles": "Cc1cc(CN2CCCc3ccccc32)cc(C)c1NC(=O)CC(C)(C)C", "values": [{"measurement": "Activity", "setting": "[1]", "value": 139, "unit": "%"}, {"measurement": "Activity", "setting": "[2]", "value": 13.3, "unit": "mV"}, {"measurement": "EC50", "setting": "[3]", "value": 330, "unit": "nM"}, {"measurement": "Efficacy", "setting": "[3]", "value": 160, "unit": "%"}, {"measurement": "fold change (FC)", "setting": "[4]", "value": 3.5}, {"measurement": "Ratio", "setting": "[5]", "value": 2.76}]}, {"smiles": "Cc1cc(N2CCC(=O)CC2)cc(C)c1NC(=O)CC(C)(C)C", "values": [{"measurement": "Activity", "setting": "[1]", "value": 110, "unit": "%"}, {"measurement": "EC50", "setting": "[3]", "value": 130, "unit": "nM"}, {"measurement": "Efficacy", "setting": "[3]", "value": 148, "unit": "%"}]}, {"smiles": "Cc1cc(N2CCC(c3cccnc3)CC2)cc(C)c1NC(=O)CC(C)(C)C", "values": [{"measurement": "Activity", "setting": "[1]", "value": 42.6, "unit": "%"}]}, {"smiles": "Cc1cc(N2CCC(c3ccc(Cl)cc3)CC2)cc(C)c1NC(=O)CC(C)(C)C", "values": [{"measurement": "Activity", "setting": "[1]", "value": 88.3, "unit": "%"}]}, {"smiles": "Cc1cc(N2CCC(c3ccncc3)CC2)cc(C)c1NC(=O)CC(C)(C)C", "values": [{"measurement": "Activity", "setting": "[1]", "value": 29.7, "unit": "%"}]}, {"smiles": "Cc1cc(N2CCC(c3ccc(C(F)(F)F)cc3)CC2)cc(C)c1NC(=O)CC(C)(C)C", "values": [{"measurement": "Activity", "setting": "[1]", "value": 41.2, "unit": "%"}]}, {"smiles": "Cc1cc(N2CCC(c3cccc(Cl)c3)CC2)cc(C)c1NC(=O)CC(C)(C)C", "values": [{"measurement": "Activity", "setting": "[1]", "value": 168, "unit": "%"}, {"measurement": "fold change (FC)", "setting": "[4]", "value": "3.7 to 42"}]}, {"smiles": "Cc1cc(N2CCC(N3CCOCC3)CC2)cc(C)c1NC(=O)CC(C)(C)C", "values": [{"measurement": "Activity", "setting": "[1]", "value": 1.13, "unit": "%"}]}, {"smiles": "Cc1cc(N2CCC(c3cccc(C(F)(F)F)c3)CC2)cc(C)c1NC(=O)CC(C)(C)C", "values": [{"measurement": "Activity", "setting": "[1]", "value": 149, "unit": "%"}, {"measurement": "fold change (FC)", "setting": "[4]", "value": "3.7 to 42"}]}, {"smiles": "Cc1cc(CN2CCCCC2)cc(C)c1NC(=O)CC(C)(C)C", "values": [{"measurement": "Activity", "setting": "[1]", "value": 10.3, "unit": "%"}]}, {"smiles": "Cc1cc(C2CCCCN2)cc(C)c1NC(=O)CC(C)(C)C", "note": "(stereo not given)", "values": [{"measurement": "Activity", "setting": "[1]", "value": 0.83, "unit": "%"}]}, {"smiles": "Cc1cc(N2CCN(c3ccc(C(F)(F)F)cc3)CC2)cc(C)c1NC(=O)CC(C)(C)C", "values": [{"measurement": "Activity", "setting": "[1]", "value": 88.3, "unit": "%"}]}, {"smiles": "Cc1cc(N2CCC(C)(C)CC2)cc(C)c1NC(=O)CC(C)(C)C", "values": [{"measurement": "Activity", "setting": "[1]", "value": 100, "unit": "%"}, {"measurement": "Activity", "setting": "[2]", "value": 25, "unit": "mV"}, {"measurement": "EC50", "setting": "[3]", "value": 1580, "unit": "nM"}, {"measurement": "Efficacy", "setting": "[3]", "value": 210, "unit": "%"}, {"measurement": "Ratio", "setting": "[5]", "value": 1.53}]}, {"smiles": "Cc1cc(N2CCC(N3CCCCC3)CC2)cc(C)c1NC(=O)CC(C)(C)C", "values": [{"measurement": "Activity", "setting": "[1]", "value": 0.02, "unit": "%"}]}, {"smiles": "CCOC(=O)Nc1ccc(NCc2ccc(F)cc2)cc1N", "note": "[EZOGABINE]", "values": [{"measurement": "Activity", "setting": "[1]", "value": 40.2, "unit": "%"}, {"measurement": "Activity", "setting": "[2]", "value": 40, "unit": "mV"}, {"measurement": "EC50", "setting": "[3]", "value": 350, "unit": "nM"}, {"measurement": "Efficacy", "setting": "[3]", "value": 210, "unit": "%"}, {"measurement": "Ratio", "setting": "[5]", "value": 2.12}]}, {"smiles": "Cc1cc(N2CCC(c3ccccc3)CC2)cc(C)c1NC(=O)CC(C)(C)C", "values": [{"measurement": "Activity", "setting": "[1]", "value": 0.63, "unit": "%"}]}, {"smiles": "Cc1cc(N2CCC(c3cccc(F)c3)CC2)cc(C)c1NC(=O)CC(C)(C)C", "values": [{"measurement": "Activity", "setting": "[1]", "value": 152, "unit": "%"}, {"measurement": "Tmax", "setting": "[6]", "value": 1.8, "unit": "min"}, {"measurement": "Vd", "setting": "[7]", "value": 0.24, "unit": "L/kg"}, {"measurement": "AUC(0-t) at 24 h", "setting": "[8]", "value": 8360, "unit": "ng·h/mL"}, {"measurement": "EC50", "setting": "[3]", "value": 220, "unit": "nM"}, {"measurement": "Efficacy", "setting": "[3]", "value": 180, "unit": "%"}, {"measurement": "fold change (FC)", "setting": "[4]", "value": "3.7 to 42"}, {"measurement": "clearance", "setting": "[9]", "value": 2, "unit": "mL/min/kg"}, {"measurement": "half-life", "setting": "[10]", "value": 82.8, "unit": "min"}, {"measurement": "MRT last at 24 h", "setting": "[11]", "value": 2.61, "unit": "h"}, {"measurement": "Cmax", "setting": "[12]", "value": 9110, "unit": "ng/mL"}]}, {"smiles": "Cc1cc(N2CCCCC2)cc(C)c1NC(=O)CC(C)(C)C", "values": [{"measurement": "Activity", "setting": "[1]", "value": 69.8, "unit": "%"}]}, {"smiles": "Cc1cc(N2CCN(c3ccccn3)CC2)cc(C)c1NC(=O)CC(C)(C)C", "values": [{"measurement": "Activity", "setting": "[1]", "value": 0.28, "unit": "%"}]}, {"smiles": "Cc1cc(CN2CCc3ccccc3C2)cc(C)c1NC(=O)CC(C)(C)C", "values": [{"measurement": "Activity", "setting": "[1]", "value": 5.11, "unit": "%"}]}, {"smiles": "Cc1cc(N2CCC(c3ccccc3C(F)(F)F)CC2)cc(C)c1NC(=O)CC(C)(C)C", "values": [{"measurement": "Activity", "setting": "[1]", "value": -47.2, "unit": "%"}]}]}
